# Reference: US20080214606A1, “Methods for the Identification and Use of Compounds Suitable for the Treatment of Drug Resistant Cancer Cells” (The Government of the United States of America as …, priority 2004, published 2008)
# Entries after “also recorded” stand apart in the source; their conditions may differ.
# Assays:
# ABCB1 = ABCB1 (Homo sapiens, UniProt P08183); experiment: Correlation of ABCB1 expression with drug sensitivity across the NCI-60
# Method in brief: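 SYBR Green real-time RT-PCR on 150 ng total RNA with 250 nM primers: RT 20 min at 50 °C, then 45 cycles; expression taken as crossing-point cycle number. Correlated with drug sensitivity of 1429 compounds across the cell panel; permutation p-values with step-down and step-up (FDR q-value) multiple-testing correction.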
# [1] = tested on: KB Hela cells expressing ABCB1(MDR1) under tetracycline control; experiment: MTT assay using HeLa-transfectants with human MDR1 under tetracycline control; assay type: cell-based; details: absence (On) or presence (Off) of 2 μg/ml tetracycline
# Procedure: Panel A is a scatter plot showing positive correlation (r=+0.54; 95% confidence interval 0.259 to 0.713) of ABCB1 expression with sensitivity of the 60 cell lines to NSC 73306. […] Cells are grown in the absence (ABCB1(MDR1)-On) or presence (ABCB1(MDR1)-Off) of 2 μg/ml tetracycline for at least seven days before starting the MTT assay. Cell surface expression and function of ABCB1 (MDR1) are verified prior to the assay by staining with anti-MDR1 monoclonal antibody (MRK-16) and by a performing a functional assay based on MDR1-controlled accumulation of the fluorescent dye Calcein (Homolya et al., 1996, Br. J. Cancer 73:849-855). […] Values are means ±S.E. of triplicate measurements.
# Cell survival is measured by the MTT (3-(4,5-Dimethylthiazol-2-yl)-2,5-diphenyltetrazolium) Assay. Cells are seeded in 100 μl medium at a density of 5000 cells/well in 96 well plates, and serially diluted drug (with or without 2 μM PSC 833) is added the following day in 100 μl medium to give the indicated final concentration. Cells are then incubated for 72 hrs at 37° C. in 5% CO2, and the MTT assay is performed according to the manufacturer's instructions (Molecular Probes, Eugene, Oreg.). […]
# ABCD1 = target: T1, ABCD1 (Homo sapiens, UniProt P33897); experiment: Correlation of ABCD1 expression with drug sensitivity across the NCI-60; assay type: cell-based; details: Pearson correlation of ABCD1 expression with sensitivity of the 60 cell lines; 1429 compounds; inverse, p < 0.0001
# T1 construct: profiled in 60 diverse cancer cell lines (the NCI-60) using real-time RT-PCR; endogenous in cells; host or cells: NCI-60 human cancer cell lines
# MDR1 positive cells = experiment: Pretreatment of MDR1 positive cells with MDR1-potentiated compound (loss of MDR phenotype); assay type: cell-based
# Text: In another preferred embodiment, the invention relates to methods of inhibiting the development of a multidrug resistance phenotype in a cancer in a subject comprising administering an ABCB1 potentiated agent to the subject. As used herein, inhibiting the development of a multidrug resistant phenotype refers to both the inhibition of the initial onset of the phenotype or the inhibition of any further development of the multidrug phenotype. It is contemplated as part of the invention that the ABCB1 potentiated agent may be administered simultaneously with a chemotherapeutic agent that is a substrate of the ABCB1 transporter. It is understood as an aspect of the invention that such simultaneous administration refers to administration within the same general time period rather than at the same exact moment in time. Thus treatment with the ABCB1 potentiated compound and the chemotherapeutic agent may be on the same day or on different days, or in the same week or in different weeks. It is within the skill of the ordinary artisan to optimize a treatment schedule to maintain the therapeutic efficacy of the chemotherapeutic agent by administration of the ABCB1 potentiated compound to inhibit the development of drug resistance. MDR1-potentiated compounds may be used to prevent the emergence of drug resistance clones. […]
# MDR1 = MDR1 (Homo sapiens, UniProt P08183); experiment: Block of MDR1-mediated transport of other molecules; assay type: cell-based
# [2] = tested on: KB-V1 cells (over-express MDR1-P-gp) vs parental KB-3-1 cells; experiment: MTT assay using the KB-3-1/KB-V1 cell pair; assay type: cell-based, human
# Procedure: (§1) Cell survival is measured by the MTT (3-(4,5-Dimethylthiazol-2-yl)-2,5-diphenyltetrazolium) Assay. Cells are seeded in 100 μl medium at a density of 5000 cells/well in 96 well plates, and serially diluted drug (with or without 2 μM PSC 833) is added the following day in 100 μl medium to give the indicated final concentration. Cells are then incubated for 72 hrs at 37° C. in 5% CO2, and the MTT assay is performed according to the manufacturer's instructions (Molecular Probes, Eugene, Oreg.).
# To test whether our approach using the NCI-60 does, in fact, identify new substrates, an MTT assay is used to test all top-scoring compounds that were available from DTP for follow-up experiments. KB-3-1, a human carcinoma cell line, and KB-V1, a multidrug resistant derivative of KB-3-1 that over-expresses MDR1-P-gp (Shen et al., 1986, J. Biol. Chem. 261:7762-7770), are used for the tests. […] This resistance of KB-V-1 cells is invariably reversible by PSC 833. The intrinsic fluorescence of one of the compounds, NSC 634791, allows for the measurement of the effect of MDR1 activity on its export from cells.
# ABCB6 = target: T2, ABCB6 (Homo sapiens, UniProt Q9NP58); experiment: Correlation of ABCB6 expression with drug sensitivity across the NCI-60; assay type: cell-based; details: Pearson correlation of ABCB6 expression with sensitivity of the 60 cell lines; 1429 compounds; inverse, p < 0.0001
# T2 construct: profiled in 60 diverse cancer cell lines (the NCI-60) using real-time RT-PCR; endogenous in cells; host or cells: NCI-60 human cancer cell lines
# Procedure: (§2) Expression levels are measured by real-time quantitative RT-PCR using the LightCycler RNA Amplification SYBR Green kit and a LightCycler machine (Roche Biochemicals, Indianapolis, Ind.). Specific oligonucleotide probes are designed for each of the ABC transporters using DNAStar Primer Select (DNASTAR Inc.), and they may be synthesized at Lofstrand Laboratories (Gaithersburg, Md.). When possible, the amplicons are designed to encompass exon-intron boundaries to avoid amplification of genomic DNA. Since the Syber Green assay detects accumulation of double stranded DNA, primers are selected (from a battery consisting of about 200 primers) that amplified a single product of the correct size. […]
# (§3) During PCR amplification, fluorescence emission is measured and recorded in real time by the LightCycler. Crossing point values are calculated, using the LightCycler software package, by the Fit Points analysis method, with baseline fluorescence set at 1. The SyberGreen assay measures accumulation of double-stranded products, and the appearance of primer dimers limits quantitation at high cycle numbers. […] The raw results are expressed as number of cycles to reach the crossing point. If the desired product is not detected, the corresponding value is adjusted to crossing points indicating no expression. To assess the contribution of experimental artifacts, selected cell lines are assessed in replicate. […]
# ABCC9 = target: T3, ABCC9 (Homo sapiens, UniProt O60706); experiment: Correlation of ABCC9 expression with drug sensitivity across the NCI-60; assay type: cell-based; details: Pearson correlation of ABCC9 expression with sensitivity of the 60 cell lines; 1429 compounds; inverse, p < 0.0001
# T3 construct: profiled in 60 diverse cancer cell lines (the NCI-60) using real-time RT-PCR; endogenous in cells; host or cells: NCI-60 human cancer cell lines
# Procedure: (§4) Expression levels are measured by real-time quantitative RT-PCR using the LightCycler RNA Amplification SYBR Green kit and a LightCycler machine (Roche Biochemicals, Indianapolis, Ind.). […] When possible, the amplicons are designed to encompass exon-intron boundaries to avoid amplification of genomic DNA. Since the Syber Green assay detects accumulation of double stranded DNA, primers are selected (from a battery consisting of about 200 primers) that amplified a single product of the correct size.
# (§5) RT-PCR is carried out on 150 ng total RNA, in the presence of 250 nM specific primers. […]
# as §3
# ABCA9 = target: T4, ABCA9 (Homo sapiens, UniProt Q8IUA7); experiment: Correlation of ABCA9 expression with drug sensitivity across the NCI-60; assay type: cell-based; details: Pearson correlation of ABCA9 expression with sensitivity of the 60 cell lines; 1429 compounds; inverse, p < 0.0001
# T4 construct: profiled in 60 diverse cancer cell lines (the NCI-60) using real-time RT-PCR; endogenous in cells; host or cells: NCI-60 human cancer cell lines
# Procedure: as §2, §3
# ABCC8 = target: T5, ABCC8 (Homo sapiens, UniProt Q09428); experiment: Correlation of ABCC8 expression with drug sensitivity across the NCI-60; assay type: cell-based; details: Pearson correlation of ABCC8 expression with sensitivity of the 60 cell lines; 1429 compounds; inverse, p < 0.0001
# T5 construct: profiled in 60 diverse cancer cell lines (the NCI-60) using real-time RT-PCR; endogenous in cells; host or cells: NCI-60 human cancer cell lines
# Procedure: as §4, §5, §3
# [3] = tested on: MDR1-overexpressing KB-V1 cells; experiment: Efflux assay (accumulation of fluorescent NSC 634791, flow cytometry); assay type: cell-based, human
# Procedure: The dashed lines indicate the same experiment performed in the presence of 2 μM of the ABCB1 inhibitor, PSC 833 (for KB-3-1, the solid and dashed lines overlap). Values are means ±SE. for representative experiments performed in triplicate. […] The effect of PSC 833 on IC50 values in KB-V1 cells is expressed as a dose modifying factor, DMF=[IC50/IC50+(IC50)PSC833)], where (IC50)PSC833 is the value obtained in the presence of the inhibitor. […] Cells are incubated with 1.74 μM NSC 634791 for 10 min at 37° C. in the presence (peak on the right) or absence (peak on the left) of 2 μM PSC 833.
# Trypsinized cells are washed twice in phosphate-buffered saline (PBS). 5×10^5 cells are pre-incubated for 5 min at 37° C. in Iscove's Modified Dulbecco's Medium (Quality Biologicals, Gaithersburg, Md.) with 0.5% dimethyl sulphoxide (DMSO), with or without 2 μM PSC 833. […] Green fluorescence intensity is measured using a FacsCalibur flow cytometer equipped with a 488-nm argon laser (Becton Dickinson Biosciences, San Jose, Calif., USA). […]
# To test whether our approach using the NCI-60 does, in fact, identify new substrates, an MTT assay is used to test all top-scoring compounds that were available from DTP for follow-up experiments. […] The intrinsic fluorescence of one of the compounds, NSC 634791, allows for the measurement of the effect of MDR1 activity on its export from cells.
# [4] = tested on: ABCC2-transfected MDCKII cells; experiment: MTT assay, ABCC2-transfected vs sham-transfected MDCKII cells; assay type: cell-based, dog
# Procedure: Panel A is a scatter plot showing the correlation (r) of ABCC2 expression with sensitivity of the 60 cells to NSC 641281 (r=−0.46; 99.99% two-tailed bootstrap confidence interval −0.7987 to −0.0440).
# as §1
# The ABCC (MRP) subfamily is comprised of nine members that transport structurally diverse lipophilic anions and function as drug efflux pumps (Kruh and Belinsky, 2003, Oncogene 22:7537-52). ABCC2-MRP2 is a canalicular efflux pump with a role in the hepatobiliary excretion of bilirubin glucuronide as well as numerous pharmaceuticals. […] One of these compounds, NSC 641281 (shown in FIG. 4, Panel C), was available from DTP for further testing. […]
# ABCG2 = target: T6, ABCG2 (Homo sapiens, UniProt Q9UNQ0); experiment: Correlation of ABCG2 expression with drug sensitivity across the NCI-60; assay type: cell-based; details: Pearson correlation of ABCG2 expression with sensitivity of the 60 cell lines; 1429 compounds; inverse, p < 0.0001
# T6 construct: endogenous in cells; host or cells: NCI-60 human cancer cell lines
# Procedure: as §2, §3
# [5] = tested on: ABCC11-transfected LLC-PK1 cells; experiment: MTT assay, ABCC11-transfected vs sham-transfected LLC-PK1 cells; assay type: cell-based
# Procedure: Panel A is a scatter plot showing the correlation (r) of ABCC11 expression with sensitivity of the 60 cells to NSC 671136 (r=−0.4; 99.99% two-tailed bootstrap confidence interval −0.6726 to −0.0141). […] Values are means ±S.E. of triplicate MTT assays.
# as §1
# One compound, NSC 671136 (shown in FIG. 5, Panel C), met the stringent bootstrap criterion for significant inverse correlation with the expression of ABCC11 in the 60 cell lines (FIG. 5, Panel A). An MTT assay was used to assess whether over-expression of ABCC11 can confer resistance to the NSC 671136 compound.
# ABCC11 = target: T7, ABCC11 (Homo sapiens, UniProt Q96J66); experiment: Correlation of ABCC11 expression with drug sensitivity across the NCI-60; assay type: cell-based; details: after removal of the single, high-expressing cell line (T47D)
# T7 construct: profiled in 60 diverse cancer cell lines (the NCI-60) using real-time RT-PCR; endogenous in cells; host or cells: NCI-60 human cancer cell lines
# Procedure: as §4, §5, §3
# Chain of ABCB1 (P08183 whole entry): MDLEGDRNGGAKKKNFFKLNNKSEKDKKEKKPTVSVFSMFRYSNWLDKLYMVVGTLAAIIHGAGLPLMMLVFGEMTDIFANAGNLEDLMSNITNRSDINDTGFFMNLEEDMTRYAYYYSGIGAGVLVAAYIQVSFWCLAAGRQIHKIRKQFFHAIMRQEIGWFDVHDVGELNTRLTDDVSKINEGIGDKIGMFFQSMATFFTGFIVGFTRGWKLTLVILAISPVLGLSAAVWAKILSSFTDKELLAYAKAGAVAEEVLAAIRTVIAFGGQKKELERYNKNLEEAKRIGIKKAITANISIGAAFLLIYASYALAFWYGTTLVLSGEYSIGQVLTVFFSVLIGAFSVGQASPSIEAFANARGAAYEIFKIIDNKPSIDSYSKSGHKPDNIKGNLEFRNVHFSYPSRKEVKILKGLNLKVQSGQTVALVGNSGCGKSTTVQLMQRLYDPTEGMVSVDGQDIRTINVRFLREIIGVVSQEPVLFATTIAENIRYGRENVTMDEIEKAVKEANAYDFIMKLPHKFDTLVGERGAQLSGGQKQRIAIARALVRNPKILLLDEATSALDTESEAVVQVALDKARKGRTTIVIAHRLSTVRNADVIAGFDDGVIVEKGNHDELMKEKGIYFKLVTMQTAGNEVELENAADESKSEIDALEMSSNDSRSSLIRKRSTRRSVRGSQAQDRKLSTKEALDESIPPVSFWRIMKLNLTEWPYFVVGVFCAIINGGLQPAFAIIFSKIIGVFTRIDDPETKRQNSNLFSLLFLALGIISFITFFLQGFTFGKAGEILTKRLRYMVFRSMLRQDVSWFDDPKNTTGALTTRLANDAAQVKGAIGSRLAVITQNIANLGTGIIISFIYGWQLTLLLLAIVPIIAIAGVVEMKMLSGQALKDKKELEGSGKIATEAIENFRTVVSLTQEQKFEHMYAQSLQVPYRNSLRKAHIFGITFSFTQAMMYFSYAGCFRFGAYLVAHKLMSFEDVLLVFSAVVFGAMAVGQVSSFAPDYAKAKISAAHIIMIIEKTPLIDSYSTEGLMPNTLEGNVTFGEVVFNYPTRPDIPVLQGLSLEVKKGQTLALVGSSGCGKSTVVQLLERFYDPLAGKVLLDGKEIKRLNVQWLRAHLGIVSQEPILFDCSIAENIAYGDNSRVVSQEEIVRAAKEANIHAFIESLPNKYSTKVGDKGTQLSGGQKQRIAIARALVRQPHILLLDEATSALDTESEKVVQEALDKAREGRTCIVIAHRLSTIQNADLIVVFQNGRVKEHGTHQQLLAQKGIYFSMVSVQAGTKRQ
# T4 sequence (Q8IUA7 whole entry): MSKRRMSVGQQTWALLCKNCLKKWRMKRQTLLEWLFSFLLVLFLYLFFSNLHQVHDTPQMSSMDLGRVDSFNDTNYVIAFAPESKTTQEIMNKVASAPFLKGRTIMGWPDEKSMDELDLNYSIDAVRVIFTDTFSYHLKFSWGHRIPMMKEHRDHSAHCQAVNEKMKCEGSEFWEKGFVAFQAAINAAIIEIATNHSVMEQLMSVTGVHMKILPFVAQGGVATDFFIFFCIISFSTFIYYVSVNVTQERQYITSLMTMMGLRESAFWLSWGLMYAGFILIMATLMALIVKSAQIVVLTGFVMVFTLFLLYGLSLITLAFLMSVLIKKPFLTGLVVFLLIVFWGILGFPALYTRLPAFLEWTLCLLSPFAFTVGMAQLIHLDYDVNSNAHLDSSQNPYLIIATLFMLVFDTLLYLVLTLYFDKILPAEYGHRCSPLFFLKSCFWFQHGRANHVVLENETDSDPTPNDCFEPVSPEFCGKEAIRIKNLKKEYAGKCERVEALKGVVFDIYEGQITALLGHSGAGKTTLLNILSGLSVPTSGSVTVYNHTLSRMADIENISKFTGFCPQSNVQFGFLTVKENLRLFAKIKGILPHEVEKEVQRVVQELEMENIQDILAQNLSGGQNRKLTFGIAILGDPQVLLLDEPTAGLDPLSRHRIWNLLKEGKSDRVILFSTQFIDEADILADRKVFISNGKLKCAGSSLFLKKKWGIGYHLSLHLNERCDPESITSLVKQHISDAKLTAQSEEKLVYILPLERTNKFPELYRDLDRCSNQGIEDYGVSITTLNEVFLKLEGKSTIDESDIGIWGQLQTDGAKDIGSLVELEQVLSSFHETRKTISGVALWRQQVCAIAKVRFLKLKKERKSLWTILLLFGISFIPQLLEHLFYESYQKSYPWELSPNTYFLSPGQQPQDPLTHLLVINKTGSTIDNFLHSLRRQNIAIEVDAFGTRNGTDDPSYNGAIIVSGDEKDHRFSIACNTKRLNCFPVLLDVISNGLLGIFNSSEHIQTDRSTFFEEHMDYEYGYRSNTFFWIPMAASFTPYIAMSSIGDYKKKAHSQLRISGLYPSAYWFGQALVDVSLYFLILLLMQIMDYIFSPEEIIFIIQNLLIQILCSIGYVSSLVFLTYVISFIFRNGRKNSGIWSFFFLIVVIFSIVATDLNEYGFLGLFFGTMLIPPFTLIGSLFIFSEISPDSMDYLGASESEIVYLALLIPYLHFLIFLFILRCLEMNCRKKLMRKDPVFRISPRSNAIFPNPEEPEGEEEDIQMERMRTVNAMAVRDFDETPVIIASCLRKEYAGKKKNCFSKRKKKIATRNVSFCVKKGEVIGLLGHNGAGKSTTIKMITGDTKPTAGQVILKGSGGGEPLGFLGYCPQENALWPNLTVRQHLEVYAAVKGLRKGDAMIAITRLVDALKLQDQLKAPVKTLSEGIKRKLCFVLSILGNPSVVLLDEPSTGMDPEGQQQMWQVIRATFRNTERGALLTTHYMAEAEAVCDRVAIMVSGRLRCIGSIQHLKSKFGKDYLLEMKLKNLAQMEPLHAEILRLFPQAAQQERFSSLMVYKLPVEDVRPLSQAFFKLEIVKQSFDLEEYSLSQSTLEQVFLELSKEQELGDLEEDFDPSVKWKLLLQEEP
# T2 sequence (Q9NP58 whole entry): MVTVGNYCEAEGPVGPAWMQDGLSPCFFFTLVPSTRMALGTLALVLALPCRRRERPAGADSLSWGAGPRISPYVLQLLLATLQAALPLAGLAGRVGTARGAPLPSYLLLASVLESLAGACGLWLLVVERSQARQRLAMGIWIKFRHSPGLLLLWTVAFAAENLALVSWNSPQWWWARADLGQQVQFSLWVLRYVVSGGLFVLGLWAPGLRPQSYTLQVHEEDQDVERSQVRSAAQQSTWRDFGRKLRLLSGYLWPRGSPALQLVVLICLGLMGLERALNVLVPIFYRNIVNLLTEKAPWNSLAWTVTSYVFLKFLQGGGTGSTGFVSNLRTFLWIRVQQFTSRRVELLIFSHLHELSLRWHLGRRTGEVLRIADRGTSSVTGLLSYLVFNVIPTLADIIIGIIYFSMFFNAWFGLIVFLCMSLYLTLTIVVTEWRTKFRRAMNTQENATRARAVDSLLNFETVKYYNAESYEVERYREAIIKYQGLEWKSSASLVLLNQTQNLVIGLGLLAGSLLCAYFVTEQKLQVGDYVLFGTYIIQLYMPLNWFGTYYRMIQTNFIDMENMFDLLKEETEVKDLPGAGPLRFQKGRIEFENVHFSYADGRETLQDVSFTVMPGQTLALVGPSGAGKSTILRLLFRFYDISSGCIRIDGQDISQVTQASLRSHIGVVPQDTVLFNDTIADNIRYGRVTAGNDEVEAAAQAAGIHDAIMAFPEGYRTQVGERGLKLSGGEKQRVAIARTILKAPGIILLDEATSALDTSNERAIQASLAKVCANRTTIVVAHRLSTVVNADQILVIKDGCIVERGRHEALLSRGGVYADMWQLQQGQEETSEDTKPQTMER
# T6 sequence (Q9UNQ0 whole entry): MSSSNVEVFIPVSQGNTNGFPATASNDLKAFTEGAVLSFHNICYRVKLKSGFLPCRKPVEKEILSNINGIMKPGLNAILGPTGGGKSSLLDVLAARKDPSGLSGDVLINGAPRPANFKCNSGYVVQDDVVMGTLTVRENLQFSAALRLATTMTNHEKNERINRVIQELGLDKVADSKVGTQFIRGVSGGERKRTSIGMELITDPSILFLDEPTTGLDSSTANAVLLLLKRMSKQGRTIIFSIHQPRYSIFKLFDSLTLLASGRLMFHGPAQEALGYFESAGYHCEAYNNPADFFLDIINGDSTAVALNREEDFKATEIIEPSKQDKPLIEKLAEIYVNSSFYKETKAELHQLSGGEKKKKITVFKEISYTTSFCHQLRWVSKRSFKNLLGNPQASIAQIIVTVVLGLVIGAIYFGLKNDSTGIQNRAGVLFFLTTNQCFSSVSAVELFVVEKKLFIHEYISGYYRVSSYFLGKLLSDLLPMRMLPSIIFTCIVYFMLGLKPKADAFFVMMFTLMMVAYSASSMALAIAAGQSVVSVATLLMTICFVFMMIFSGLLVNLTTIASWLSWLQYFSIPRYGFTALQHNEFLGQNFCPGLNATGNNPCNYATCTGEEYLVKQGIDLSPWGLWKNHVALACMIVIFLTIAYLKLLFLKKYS
structure (smiles),measurement,setting,value
COc1ccc(NC(=S)N/N=C2\C(=O)Nc3c(Cl)cc(Cl)cc32)cc1 [NSC 73306],Correlation of antiproliferative activity with ABCB1 expression,ABCB1,0.511
same,Sensitivity of MDR1-On cells relative to MDR1-Off cells,[1],two- to four-fold; also recorded: approximately two-fold
same,Correlation,ABCD1,−0.6029
same,Drug sensitivity for non-MDR1 substrates after pretreatment,MDR1 positive cells; non-MDR1 substrates such as cisplatin and methotrexate,unchanged
same,Drug resistance to MDR1 substrates after pretreatment,MDR1 positive cells; pretreatment of MDR1 positive cells,almost complete elimination of drug resistance
same,Block of MDR1-mediated transport of other molecules,MDR1,does not block
same,Effect of PSC 833 on the heightened sensitivity of KB-V1 cells,[2]; MTT assay with 2 μM PSC 833,completely reversed sensitivity; also recorded: completely abolished the heightened sensitivity
same,Sensitivity of KB-V1 cells relative to parental KB-3-1 (potentiation by ABCB1),"[2]; MTT assay, 72 hrs",four- to five-fold; also recorded: approximately four-fold
Cn1c2ccccc2c2ccc3c(c21)C(=O)C=CC3=O [NSC 92937],Correlation,ABCB6,−0.4335
CC(=O)O[C@@H]1C=C(C=O)[C@](O)(C=O)[C@@]2(C)CCCC(C)(C)[C@H]12 [NSC 277293],Correlation,ABCB6,−0.5055
COc1cc2c(c(OC)c1OC)-c1cccc(=O)cc1C(NC(C)=O)CC2 (centres unmarked) [NSC 352277],Correlation,ABCC9,−0.3094
C[C@]12CC[C@H]3[C@@H](CCC4=CC(=O)NCC[C@@]43C)[C@@H]1CC[C@@H]2OC(=O)COc1ccc(N(CCCl)CCCl)cc1 [NSC 620480],Correlation,ABCA9,−0.4846
COc1cc2[nH]c3c(c2cc1OC)CCN[C@@]31CC[C@@]2(CC3c4c(cc(OC)c(O)c42)CCN3C)C[C@@H]1OC (some centres unmarked) [NSC 626578],Correlation,ABCC8,−0.4335
CCN(CC)c1ccc(/C=C2/C[N+](C)(C)C/C(=C/c3ccc(N(CC)CC)cc3)C2=O)cc1.[I-] [NSC 634791],Correlation,ABCB1,−0.7900
same,Accumulation of the fluorescent compound in MDR1-positive cells vs parental KB-3-1,"[3]; 1.74 μM, 10 min at 37° C.",contain less of the fluorescent compound than the parental KB-3-1 cell line
same,Effect of PSC 833 on the decreased accumulation,[3]; 2 μM PSC 833,completely reversible
O=C(O)COc1ccc(C(=O)/C(SS/C(C(=O)c2ccc(OCC(=O)O)c(Cl)c2Cl)=C2\C=C(c3ccc(Br)cc3)SS2)=C2/C=C(c3ccc(Br)cc3)SS2)c(Cl)c1Cl [NSC 641281],Response of ABCC2-overexpressing MDCKII cells vs sham-transfected control,[4],extremely resistant; also recorded: no signs of toxicity even at maximal concentrations
CCCCCCCCCCCCCCCC(=O)OCC1OC(OC)C2NP(=O)(N(CCCl)CCCl)OC1C2O (centres unmarked) [NSC 642915],Correlation,ABCA9,−0.4289
Cn1c2ccc(F)cc2c2ccc3c(c21)C(=O)C=CC3=O [NSC 668844],Correlation,ABCG2,−0.4615
CC(=O)c1sc2c(c1OC(=O)c1ccc(Cl)cc1Cl)c(=O)n(-c1ccccc1)c(=S)n2-c1ccccc1 [NSC 671136],Resistance of ABCC11-transfected LLC-PK1 cells relative to sham-transfected cells,[5],two- to three-fold
same,Correlation (r) of ABCC11 expression with sensitivity,ABCC11,−0.38
CCOC(=O)/C=C(\C(=O)OCC)n1cc(C)c(=O)n(Cc2cnnn2CCCCOC(C)=O)c1=O [NSC 694002],Pearson's Correlation Coeff,ABCB1,0.2442
same,Correlation,ABCG2,−0.3627
